In patent US9000028B2, “Indole and indazole compounds as an inhibitor of cellular necrosis” (LG Life Sciences Ltd., priority 2007, dated 2015):
Where two headings read alike, the source gives them in different places.

Experiments:
Format in all cases: cell-based
brain cells (SK-N-MC) = assay: Protective effect when tBHP was treated on brain cells (LDH assay); conditions: Homo sapiens, tBHP 400 uM, 6 h
Description: In order to assess the protective effect on brain cells, 2×10^4 brain cells were distributed into the 96-well plate using DMEM media (Gibco, 10% FBS), and incubated for 24 h. The Example compounds were serially diluted by 3-fold to the final concentration of 30, 10, 3, 1, 0.3, 0.1 uM, by which each well was treated for 1 h. Cells were treated with tBHP at the final concentration of 400 uM, and incubated for 6 h. 50 uL of media was taken from each well to proceed with LDH assay (Promega). In LDH assay, 50 uL of media was mixed with 50 uL of assay solution. After the reaction for 30 min at room temperature, absorbance was measured at 490 nm using SpectraMax (Molecular Device).

[1] = tested on: primary hepatocytes isolated from rats; assay: Hepatocyte protective effect against substances deriving hepatocyte toxicity (WST-1 viability); conditions: for EC50: 24-48 h
How it was run: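 Hepatocytes from two-step collagenase perfusion (≥90% viable) seeded on collagen, pretreated 30 min with compound (5-step 2- or 3-fold dilutions from 30, 10 or 1 uM; 0.2% DMSO), then exposed to hepatotoxic agents. WST-1 absorbance at 440 nm after 24-48 h; EC50 = concentration giving 50% of maximal protection.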

[2] = tested on: cardiac cells (H9C2, white rat cardiomyocyte); assay: Protective effect when tBHP was treated on cardiac cells (SRB method); conditions: tBHP 400 uM, 2 h
Description: (§1) In order to determine the protective effect on pancreatic cells, Linm5F cells, a sort of the beta cells, were distributed into the 96-well plate in the amount of 2×10^4 cells/well, and incubated for 24 h. The Example compounds were serially diluted by 3-fold to the final concentration of 30, 10, 3, 1, 0.3, 0.1 uM, by which each well was treated for 1 h. Cells were treated with tBHP at the final concentration of 400 uM, and further incubated for 5 h. Protective effects were determined using SRB (Sulforhodamine B Protein) method in which total amount of cellular protein is stained. Briefly, cells were incubated for 5 h, 50 uL of 4% formaldehyde solution was added to each well to fix the cells, and stored for about 30 min at room temperature. After discarding the media, each well was washed with distilled water 2-3 times, and the plate was dried in an oven at 50° C. 50 uL of SRB solution was added to each well, and placed for about 30 min at room temperature. After removing SRB solution, the plate was washed with 1% acetic acid solution 2-3 times. After drying the plate in an oven at 50° C., 100 uL of 10 mM Tris was added to elute SRB which was staining the intracellular protein.
In order to assess the protective effect on cardiac cells, H9C2 cells were distributed in the amount of 1.5×10^4 cells/well, and incubated for 24 h. The Example compounds were serially diluted by 3-fold to the final concentration of 30, 10, 3, 1, 0.3, 0.1 uM, by which each well was treated for 45 min. Cells were treated with tBHP at the final concentration of 400 uM, and incubated for 2 h. Protective effect of each compound was determined using the same SRB method as in Linm5F of above mentioned 2).

[3] = tested on: pancreatic cells (Linm5F); assay: Protective effect when tBHP was treated on pancreatic cells (SRB method); conditions: tBHP 400 uM, 5 h
Description: as §1

[4] = Rattus norvegicus, Hepatocyte, doxorubicin, read-out: EC50, cell protective effects against doxorubicin in hepatocytes
[5] = doxorubicin, rat primary hepatocytes, read-out: EC50, cell protective effects against doxorubicin in hepatocytes

Row | SMILES | EC50 [1, 4] | other results
1 | Cc1cc(N(C)C2CCOCC2)c2[nH]c(-c3ccccc3)cc2c1 [Example 55, (Tetrahydropyran-4-yl)-(5-methyl-2-phenyl-1H-indol-7-yl)-methyl-amine] | 300 nM | EC50 (brain cells (SK-N-MC)): ≤ 100 nM
2 | CC(=O)Nc1ccc(-c2cc3cc(N4CCS(=O)(=O)CC4)cc(N(C4CCCC4)C4CCCC4)c3[nH]2)cc1 [Example 86, Dicyclopentyl-{5-(1,1-dioxo-thiomorpholin-4-yl)-2-[4-(acetyl)aminophenyl]-1H-indol-7-yl}-amine] | 1440 nM | EC50 [2]: 500 nM
3 | COC(=O)CNc1cc(F)cc2cc(-c3ccccc3)[nH]c12 [Example 106, 2-(5-Fluoro-2-phenyl-1H-indol-7-yl)amino-acetic acid methyl ester] | 450 nM | EC50 [3]: ≤ 100 nM
4 | Cc1ccc(Nc2cc(Cl)cc3c(-c4ccccc4)c[nH]c23)nc1 [Example 115, (5-Chloro-3-phenyl-1H-indol-7-yl)-(5-methyl-pyridin-2-yl)-amine] | > 2000 nM | EC50 (brain cells (SK-N-MC)): 260 nM
5 | CS(=O)(=O)N1CCC(Nc2cc(CN3CCS(=O)(=O)CC3)cc3cc(-c4ccccc4)[nH]c23)CC1 [Example 97, (5-(1,1-Dioxo-thiomorpholin-4-yl)methyl-2-phenyl-1H-indol-7-yl)-(1-methanesulfonyl-piperidin-4-yl)-amine] | 90 nM | EC50 [2]: ≤ 200 nM
6 | O=C1CN(Cc2cc(NC3CCOCC3)c3[nH]c(-c4ccccc4)cc3c2)CCN1 [Example 37, (Tetrahydropyran-4-yl)-[2-phenyl-5-(2-oxo-piperazin-4-yl)methyl-1H-indol-7-yl]amine] | 150 nM | EC50 (brain cells (SK-N-MC)): ≤ 100 nM
7 | Cc1cc(NC2CCN(C)CC2)c2[nH]c(-c3ccccn3)cc2c1 [Example 13, (1-Methylpiperidin-4-yl)-[5-methyl-2-(pyridin-2-yl)-1H-indol-7-yl]-amine] | 400 nM | –
8 | Cc1cc(NC2CCOCC2)c2[nH]c(-c3ccccc3)cc2c1 [Example 41, (Tetrahydropyran-4-yl)-(5-methyl-2-phenyl-1H-indol-7-yl)-amine] | 60 nM | EC50 ([1]; Rattus norvegicus, Hepatocyte, Actinomycin D 100 ng/mL, read-out: EC50, protective effect against the substances deriving hepatotoxicity): 170 nM; EC50 ([1]; Rattus norvegicus, Hepatocyte, Anti-Fas Ab 1 ug/mL / Actinomycin D 5 ng/mL, read-out: EC50, protective effect against the substances deriving hepatotoxicity): < 600 nM; EC50 ([1]; Rattus norvegicus, Hepatocyte, CCl4 10 mM, read-out: EC50, protective effect against the substances deriving hepatotoxicity): 800 nM; EC50 ([1]; Rattus norvegicus, Hepatocyte, CdCl2 1 uM, read-out: EC50, protective effect against the substances deriving hepatotoxicity): 1900 nM; EC50 ([1]; Rattus norvegicus, Hepatocyte, Cyclophosphamide 3 mM, read-out: EC50, protective effect against the substances deriving hepatotoxicity): < 200 nM; EC50 ([1]; Rattus norvegicus, Hepatocyte, Doxorubicin 5 uM, read-out: EC50, protective effect against the substances deriving hepatotoxicity): 60 nM; EC50 ([1]; Rattus norvegicus, Hepatocyte, EtOH 2.5%, read-out: EC50, protective effect against the substances deriving hepatotoxicity): 9000 nM; EC50 ([1]; Rattus norvegicus, Hepatocyte, H2O2 10 mM, read-out: EC50, protective effect against the substances deriving hepatotoxicity): 800 nM; EC50 ([1]; Rattus norvegicus, Hepatocyte, Palmitic acid 700 uM, read-out: EC50, protective effect against the substances deriving hepatotoxicity): < 600 nM; EC50 ([1]; Rattus norvegicus, Hepatocyte, Stearic acid 700 uM, read-out: EC50, protective effect against the substances deriving hepatotoxicity): < 600 nM; viability at 3-100 uM ([1]; Tacrine 0.5 mM, compound at 3-100 uM, rat primary hepatocytes): 50%
9 | Clc1cc(NCC2CCCC2)c2[nH]c(-c3ccccc3)cc2c1 [Example 49, Cyclopentylmethyl-(5-chloro-2-phenyl-1H-indol-7-yl)-amine] | 133 nM | –
10 | O=C1CCC(Nc2cc(Cl)cc3cc(-c4ccccc4)[nH]c23)CC1 [Example 21, 4-[(5-Chloro-2-phenyl-1H-indol-7-yl)amino]-cyclohexan-1-one] | 40 nM | –
11 | CN(C)CC(=O)N1CCC(Nc2cc(Cl)cc3cc(-c4ccccc4)[nH]c23)CC1 [Example 95, 1-[4-(5-Chloro-2-phenyl-1H-indol-7-yl)amino-piperidin-1-yl]-2-dimethylamino-ethanone] | 210 nM | –
12 | COc1ccc(-c2cc3cc(CN4CCS(=O)(=O)CC4)cc(NC4CCOCC4)c3[nH]2)cc1 [Example 39, (Tetrahydropyran-4-yl)-[2-(4-methoxy)phenyl-5-(1,1-dioxo-thiomorpholin-4-yl)methyl-1H-indol-7-yl]amine] | – | EC50 [1, 5]: 330 nM
13 | Cc1cc(N(C)C)c2[nH]c(-c3ccccn3)cc2c1 [Example 17, Dimethyl-[5-methyl-2-(pyridin-2-yl)-1H-indol-7-yl]-amine] | 540 nM | –
14 | O=C(O)Cc1cc(NC2CCCC2)c2[nH]c(-c3ccccc3)cc2c1 [Example 33, 2-[7-(Cyclopentyl)amino-2-phenyl-1H-indol-5-yl]acetic acid] | 150 nM | –
15 | O=C1CN(Cc2cc(NC3CCCC3)c3[nH]c(-c4cccc(F)c4)cc3c2)CCN1 [Example 38, Cyclopentyl-[2-(3-fluoro)phenyl-5-(2-oxo-piperazin-4-yl)methyl-1H-indol-7-yl]amine] | – | EC50 [1, 5]: 110 nM
16 | O=S1(=O)CCN(Cc2cc(N(C3CCOCC3)C3CCOCC3)c3[nH]c(-c4ccccc4)cc3c2)CC1 [Example 58, Di(tetrahydropyran-4-yl)-[2-phenyl-5-(1,1-dioxo-thiomorpholin-4-yl)methyl-1H-indol-7-yl]amine] | 260 nM | –
17 | O=C(O)[C@@H]1CCCN1C(=O)c1cc(NC2CCCC2)c2[nH]c(-c3ccccc3)cc2c1 [Example 117, (2S)-1-(7-cyclopentylamino-2-phenyl-1H-indole-5-carbonyl)-pyrrolidine-2-carboxylic acid] | 260 nM | EC50 [2]: ≤ 200 nM
18 | NC(=O)C1CCC(Nc2cc(Cl)cc3cc(-c4ccccc4)[nH]c23)CC1 (stereo not drawn) [Example 104, 4-(5-Chloro-2-phenyl-1H-indol-7-yl)amino-cyclohexane-1-carboxylic acid amide] | 80 nM | –
19 | CC(Nc1cc(Oc2ccccc2)cc2cc(-c3ccccc3)[nH]c12)C(=O)O (stereo not drawn) [Example 111, 2-(5-Phenoxy-2-phenyl-1H-indol-7-yl)amino-propionic acid] | 257 nM | –
20 | CN(C)c1cc(Cl)cc2cc(-c3ccccc3)n(C)c12 [Example 65, Dimethyl-(5-chloro-1-methyl-2-phenyl-1H-indol-7-yl)amine] | 600 nM | –
21 | Cc1cc(NC2CCCCC2)c2[nH]c(-c3ccccn3)cc2c1 [Example 11, Cyclohexyl-[5-methyl-2-(pyridin-2-yl)-1H-indol-7-yl]-amine] | 100 nM | –
22 | OCCN1CCC(Nc2cc(F)cc3cc(-c4ccccc4)[nH]c23)CC1 [Example 60, 2-[4-[(5-Fluoro-2-phenyl-1H-indol-7-yl)amino]piperidin-1-yl]ethanol] | 170 nM | –
23 | Clc1cc(NCC2CCOCC2)c2[nH]c(-c3ccccc3)cc2c1 [Example 50, (Tetrahydropyran-4-ylmethyl)-(5-chloro-2-phenyl-1H-indol-7-yl)-amine] | 43 nM | –
24 | O=C(O)CNc1cc(F)cc2cc(-c3ccccc3)[nH]c12 [Example 107, 2-(5-Fluoro-2-phenyl-1H-indol-7-yl)amino-acetic acid] | 350 nM | EC50 [3]: ≤ 100 nM
25 | OCCc1cc(NC2CCCC2)c2[nH]c(-c3ccccc3)cc2c1 [Example 32, 2-[7-(Cyclopentylamino)-2-phenyl-1H-indol-5-yl]ethanol] | 130 nM | –
26 | CCOC(=O)c1cc(NC2CCCC2)c2[nH]c(-c3ccccc3)cc2c1 [Example 28, 7-(Cyclopentyl)amino-2-phenyl-1H-indole-5-carboxylic acid ethyl ester] | 170 nM | –
27 | O=S1(=O)CCN(Cc2cc(NCC3CCOCC3)c3[nH]c(-c4ccccc4)c(Br)c3c2)CC1 [Example 74, (Tetrahydropyran-4-ylmethyl)-(3-bromo-5-(1,1-dioxo-thiomorpholin-4-yl)methyl-2-phenyl-1H-indol-7-yl)-amine] | 350 nM | EC50 [2]: ≤ 200 nM
28 | O=C(O)Cc1cc(NC2CCOCC2)c2[nH]c(-c3ccccc3)cc2c1 [Example 34, 2-[2-Phenyl-7-(tetrahydropyran-4-yl)amino-1H-indol-5-yl]-acetic acid] | > 2000 nM | –
